Literature values as cited in patent publication US4866036A, “Dipeptidyl 5-0,6-0-acyl-2-amino-2-deoxy-D-glucofuranose compositions and methods of use in aids-immunocompromised human hosts” (priority 1987, dated 1989).

Experiments:
[1] = human, in vivo
[2] = human, in vivo; remark: listed apart in the source
[3] = biological target: HIV reverse transcriptase (Human immunodeficiency virus type 1 group M subtype B, UniProt P04585)
[4] = in vivo
[5] = system: reverse transcriptase in several retroviruses; settings: in vitro

Molecule | clinical effect in AIDS or ARC patients [1] | toxicity / adverse effects in patients [2] | also measured
CO[C@H]1/C=C/O[C@@]2(C)Oc3c(C)c(O)c4c(c3C2=O)C2=NC3(CCN(CC(C)C)CC3)NC2=C(NC(=O)/C(C)=C\C=C\[C@H](C)[C@H](O)[C@@H](C)[C@@H](O)[C@@H](C)[C@H](OC(C)=O)[C@@H]1C)C4=O [Ansamycin, rifabutin] | some efficacy |  | 
O=C(O)P(=O)(O)O [Foscarnet, trisodium phosphonoformate] |  | serious side effects | HIV reverse transcriptase activity [3]: Inhibits HIV reverse transcriptase activity in vitro
CC(C)(S)[C@@H](N)C(=O)O [D-Penicillamine, 3-mercapto-D-valine] | suppressed the virus | temporarily depressed T cell levels | 
NC(=O)c1ncn([C@@H]2O[C@H](CO)[C@@H](O)[C@H]2O)n1 [Ribavirin, 1β-D ribofuranosyl 1,2,4-triazole 3-carboxamide] | inhibited viral replication and improved immune function |  | 
Cc1cn([C@H]2C[C@H](N=[N+]=[N-])[C@@H](CO)O2)c(=O)[nH]c1=O [Azidothymidine, 3'-azido 3'-deoxythymidine] |  |  | half-life in the body [4]: relatively short half-life; penetration of the central nervous system [4]: effectively penetrates central nervous system
ammonium 21-tungsto-9 antimoniate [HPA 23] | no therapeutic benefit has been documented |  | growth of HIV (HIV): some tendency to check the growth of HIV; reverse transcriptase in several retroviruses [5]: Inhibits reverse transcriptase
CC(=O)Nc1ccc(C(=O)O)cc1.CC(=O)Nc1ccc(C(=O)O)cc1.CC(=O)Nc1ccc(C(=O)O)cc1.CC(O)CN(C)C.CC(O)CN(C)C.CC(O)CN(C)C.O=c1[nH]cnc2c1ncn2[C@@H]1O[C@H](CO)[C@@H](O)[C@H]1O [Inosine pranobex] | improve immune function in ARC patients |  | 
α-Interferon | induced tumor regression in some AIDS related Kaposi's sarcoma cases |  | growth of HIV (HIV): Checks the growth of HIV in vitro
Cc1ccc(C(=O)Nc2ccc(S(=O)(=O)O)c3cc(S(=O)(=O)O)cc(S(=O)(=O)O)c23)cc1NC(=O)c1cccc(NC(=O)Nc2cccc(C(=O)Nc3cc(C(=O)Nc4ccc(S(=O)(=O)O)c5cc(S(=O)(=O)O)cc(S(=O)(=O)O)c45)ccc3C)c2)c1 [Suramin] |  |  | HIV reverse transcriptase activity [3]: Potent inhibitor
CC(C)(N1CC1C#N)N1CC1C(N)=O (centres unmarked) [Azimexon] | improvements in symptoms and immune function in patients with ARC but not AIDS | mild hemolysis | 
